Measured values published in US9474759B2 (priority 2011, dated 2016).
Read-outs that look alike come from different tables or passages of the source.

What was measured:
FECV-1683 = FECV-1683 replication in CRFK cells, TCID50 method; assay type: cell-based, feline coronavirus; conditions: Alphacoronavirus 1, MOI 0.05, mean ± SEM
Method: Crandell Rees feline kidney (CRFK) cells were maintained in minimal essential medium containing 2-5% fetal bovine serum and antibiotics (chlortetracycline [25 μg/ml], penicillin [250 U/ml], and streptomycin [250 μg/ml]). FIPV WSU 79-1146 and FECV WSU 79-1683 strains are the prototypes of serotype II FIPV or FECV, respectively, and were purchased from ATCC (Manassas, Va.).
The cells were further incubated in the presence of each compound for 1 hr at 37° C. Then […] or FECV-1683 was inoculated to the cells at a multiplicity of infection (MOI) of 0.05 or 5.
b. TCID50 Method. A standard TCID50 method with the 10-fold dilution of each sample was used for virus titration.

[1] = target: MNV-1 3CLpro (codon-optimized, full-length, recombinant) (Norovirus, UniProt Q80J95); experiment: biochemical; set-up: species or system murine norovirus-1 (GV)
Sequence of MNV-1 3CLpro (codon-optimized, full-length, recombinant) (Q80J95 995-1177): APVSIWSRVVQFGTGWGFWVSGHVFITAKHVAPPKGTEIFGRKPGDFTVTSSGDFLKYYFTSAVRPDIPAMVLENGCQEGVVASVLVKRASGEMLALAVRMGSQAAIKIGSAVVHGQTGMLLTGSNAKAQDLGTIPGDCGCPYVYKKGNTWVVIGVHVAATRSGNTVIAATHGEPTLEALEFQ

[2] = target: TGEV 3CLpro (full-length, 6 His, recombinant) (Porcine transmissible gastroenteritis coronavirus strain Purdue, UniProt P0C6V2); experiment: biochemical; set-up: species or system transmissible gastroenteritis virus (strain Miller)
Sequence of TGEV 3CLpro (full-length, 6 His, recombinant) (P0C6V2 2879-3180): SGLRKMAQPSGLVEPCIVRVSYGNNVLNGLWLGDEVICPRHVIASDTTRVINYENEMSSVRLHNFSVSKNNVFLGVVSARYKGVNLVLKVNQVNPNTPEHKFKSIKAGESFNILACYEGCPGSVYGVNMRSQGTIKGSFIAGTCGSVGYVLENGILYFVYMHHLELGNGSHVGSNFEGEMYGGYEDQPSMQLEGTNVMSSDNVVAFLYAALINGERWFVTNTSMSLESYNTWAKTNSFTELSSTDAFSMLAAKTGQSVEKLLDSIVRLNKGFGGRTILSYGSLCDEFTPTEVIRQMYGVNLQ

`CC(C)C[C@H](NC(=O)OCc1ccccc1)C(=O)N[C@H](C=O)C[C@@H]1CCNC1=O` [GC373] showed an EC50 (FECV-1683; 24 hr post infection, read-out: Inhibition [ED50 (μM)] against FECV-1683, 24 hrs) of 0.04 ± 0.01 µM, an EC50 (FECV-1683; 48 hr post infection, read-out: Inhibition [ED50 (μM)] against FECV-1683, 48 hrs) of 0.09 ± 0.01 µM and an IC50 [1] of 1.34 µM. It also gave an IC50 [2] of 0.99 ± 0.12 µM.
